Tests used:
[1] = tested on: FAAH−/− and FAAH+/+ mice; experiment: Hypothermia; assay type: in vivo
[2] = tested on: FAAH−/− and FAAH+/+ mice; experiment: Tail withdrawal; assay type: in vivo
[3] = THC blood and brain levels, single bolus vs cumulative dosing; assay type: in vivo; details: C57Bl/6J mice, mean ± SEM
[4] = tested on: FAAH−/− and FAAH+/+ mice; experiment: Bar test for catalepsy, cumulative dose-response; assay type: in vivo
[5] = tested on: FAAH−/− and FAAH+/+ mice; experiment: Rimonabant-precipitated withdrawal; assay type: in vivo; details: after subchronic 50 mg/kg twice daily 5.5 days; rimonabant 10 mg/kg i.p.
[6] = biological target: T1, CB1 receptor (Mus musculus, UniProt P47746); experiment: Agonist-stimulated [35S]GTPγS binding in spinal cord membranes; assay type: biochemical, mice
[7] = biological target: T1, CB1 receptor; assay type: biochemical, mice
[8] = tested on: FAAH−/− and FAAH+/+ mice; details: FAAH−/− mice ref Cravatt et al., 2001; cited from earlier work
[9] = biological target: T1, CB1 receptor; experiment: [3H]WIN55,212-2 autoradiography in brain sections after subchronic treatment; assay type: binding; details: FAAH−/− mice treated subchronically; 1 nM radioligand; mean ± SEM
[10] = FAAH+/+ mice, naive, cumulative dosing
[11] = FAAH−/− mice, naive, cumulative dosing
[12] = Table 3, FAAH−/− mice, subchronic AEA
[13] = Table 3, FAAH−/− mice, subchronic THC
[14] = Table 3, FAAH−/− mice, subchronic vehicle
[15] = FAAH−/− mice treated subchronically, WIN55,212-2 10 μM, mean ± SEM

T1 sequence (P47746 whole entry): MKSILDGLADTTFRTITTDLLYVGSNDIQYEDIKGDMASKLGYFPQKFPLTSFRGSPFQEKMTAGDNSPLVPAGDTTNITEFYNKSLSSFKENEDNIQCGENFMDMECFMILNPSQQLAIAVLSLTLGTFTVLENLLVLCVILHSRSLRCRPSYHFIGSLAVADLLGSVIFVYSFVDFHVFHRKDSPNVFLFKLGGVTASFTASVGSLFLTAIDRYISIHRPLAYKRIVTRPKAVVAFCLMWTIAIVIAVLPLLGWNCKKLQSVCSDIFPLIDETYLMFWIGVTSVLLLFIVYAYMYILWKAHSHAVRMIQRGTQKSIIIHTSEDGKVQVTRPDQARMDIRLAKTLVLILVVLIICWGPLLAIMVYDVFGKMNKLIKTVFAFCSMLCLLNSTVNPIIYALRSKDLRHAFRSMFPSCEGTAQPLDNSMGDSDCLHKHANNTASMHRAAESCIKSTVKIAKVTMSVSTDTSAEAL

SMILES: CCCCCc1cc(O)c2c(c1)OC(C)(C)[C@@H]1CCC(C)=C[C@@H]21 [THC, Δ^9-tetrahydrocannabinol]
- Hypothermia ED50 (95% CI) [1, 10]: 18 (15-22) mg/kg
- Hypothermia ED50 (95% CI) ([1]; FAAH+/+ mice, subchronic THC): 109 (62- 190) mg/kg
- Hypothermia ED50 (95% CI) [1, 11]: 22 (16-32) mg/kg
- Hypothermia ED50 (95% CI) ([1]; FAAH−/− mice, subchronic AEA): 133 (106- 166) mg/kg
- Hypothermia ED50 (95% CI) ([1]; FAAH−/− mice, subchronic THC): 224 (190- 266) mg/kg
- Hypothermia ED50 (95% CI) [1, 12]: 50 (40-55) mg/kg
- Hypothermia ED50 (95% CI) [1, 13]: 32 (27-38) mg/kg
- Hypothermia ED50 (95% CI) [1, 14]: 17 (15-20) mg/kg
- Antinociception ED50 (95% CI) [2, 10]: 19 (14-26) mg/kg
- Antinociception ED50 (95% CI) [2, 11]: 22 (17-30) mg/kg
- Antinociception maximum effect ± SEM ([2]; FAAH−/− mice, subchronic THC 50 mg/kg twice daily 5.5 days, @ 300 mg/kg): 25 + 4%MPE @ 300 mg/kg
- Antinociception ED50 (95% CI) [2, 12]: 55 (44-69) mg/kg
- Antinociception ED50 (95% CI) [2, 13]: 76 (58-99) mg/kg
- Antinociception ED50 (95% CI) [2, 14]: 20 (16-24) mg/kg
- Brain THC level, single bolus ([3]; THC 3 mg/kg): 77 ± 5 ng/mL
- Brain THC level, single bolus ([3]; THC 10 mg/kg): 212 ± 19 ng/mL
- Brain THC level, cumulative dosing ([3]; THC 30 mg/kg cumulative): 641 ± 134 ng/mL
- Brain THC level, single bolus ([3]; THC 30 mg/kg): 520 ± 79 ng/mL
- Brain THC level, cumulative dosing ([3]; THC 56 mg/kg cumulative): 1294 ± 178 ng/mL
- Brain THC level, single bolus ([3]; THC 56 mg/kg): 1072 ± 156 ng/mL
- Catalepsy ED50 (95% CI) [4, 10]: 18 (13-25) mg/kg
- Catalepsy maximum effect ([4]; FAAH+/+ mice, subchronic THC, @ 300 mg/kg): 62% @ 300 mg/kg
- Catalepsy ED50 (95% CI) [4, 11]: 21 (15-28) mg/kg
- Catalepsy maximum effect ([4]; FAAH−/− mice, subchronic AEA, @ 300 mg/kg): 25% @ 300 mg/kg
- Catalepsy maximum effect ([4]; FAAH−/− mice, subchronic THC, @ 300 mg/kg): 67% @ 300 mg/kg
- Catalepsy ED50 (95% CI) [4, 12]: 62 (56-69) mg/kg
- Catalepsy maximum effect ([4]; Table 3, FAAH−/− mice, subchronic THC, @ 150 mg/kg): 50% @ 150 mg/kg
- Catalepsy ED50 (95% CI) [4, 14]: 16 (13-19) mg/kg
- Rimonabant precipitated head twitches / headshakes [5]: significant increases

SMILES: CCCCC/C=C\C/C=C\C/C=C\C/C=C\CCCC(=O)NCCO [AEA, N-arachidonoyl ethanolamine]
- Emax of agonist-stimulated [35S]GTPγS binding ([6]; spinal cord membranes from AEA-treated FAAH−/− mice): 35 ± 3.3 % Stim
- Emax as percent of that obtained in vehicle-treated mice ([6]; spinal cord membranes from AEA-treated mice): 104%
- Emax of agonist-stimulated [35S]GTPγS binding ([6]; spinal cord membranes from THC-treated FAAH−/− mice): 25 ± 2.3 % Stim
- Emax as percent of that obtained in vehicle-treated mice ([6]; spinal cord membranes from THC-treated mice): 75%
- Emax of agonist-stimulated [35S]GTPγS binding ([6]; spinal cord membranes from vehicle-treated FAAH−/− mice): 34 ± 1.6 % Stim
- WIN55,212-2-stimulated [35S]GTPγS binding vs vehicle control (study 1, Figure 5) ([7]; FAAH+/+ and FAAH−/− mice, caudate putamen, hippocampus, cerebellum): not different from vehicle control
- Net WIN55,212-2-stimulated [35S]GTPγS binding, Caudate-Putamen [7, 15]: 152 ± 28 nCi/g
- Net WIN55,212-2-stimulated [35S]GTPγS binding, Cerebellum [7, 15]: 178 ± 23 nCi/g
- Net WIN55,212-2-stimulated [35S]GTPγS binding, Globus Pallidus [7, 15]: 639 ± 60 nCi/g
- Net WIN55,212-2-stimulated [35S]GTPγS binding, Hippocampus [7, 15]: 132 ± 24 nCi/g
- Net WIN55,212-2-stimulated [35S]GTPγS binding, PAG [7, 15]: 79 ± 19 nCi/g
- Net WIN55,212-2-stimulated [35S]GTPγS binding, Substantia Nigra [7, 15]: 592 ± 49 nCi/g
- Persistence of antinociception, catalepsy, locomotor inhibition and hypothermia [8]: 6 to 8 h
- Specific [3H]WIN55,212-2 binding, Caudate-Putamen [9]: 0.95 ± 0.09 pCi/g
- Specific [3H]WIN55,212-2 binding, Cerebellum [9]: 1.69 ± 0.18 pCi/g
- Specific [3H]WIN55,212-2 binding, Globus Pallidus [9]: 2.31 ± 0.18 pCi/g
- Specific [3H]WIN55,212-2 binding, Hippocampus [9]: 0.88 ± 0.06 pCi/g
- Specific [3H]WIN55,212-2 binding, PAG [9]: 0.57 ± 0.06 pCi/g
- Specific [3H]WIN55,212-2 binding, Substantia Nigra [9]: 3.11 ± 0.29 pCi/g
- Rimonabant precipitated head twitches / headshakes [5]: no changes

From paper PMC2895947 (Neuropsychopharmacology : official publication of the …, 2010)
